Laboratory results published in article PMC12732581, “Molecular and System-Level Characterization of MMP12 Suppression in Lung Cancer: A Combined Bioinformatics and Molecular Approach” (International Journal of Molecular Sciences, 2025).
pIC50: −log10 of the molar value.

What was measured:
A549 lung cancer cells = assay: MTT cell viability assay, A549; type: cell-based, human
Experimental: (§1) To evaluate the impact of MMP12 inhibitors on lung cancer cell lines, an MTT assay was performed on A549, H1299, and H661 cells exposed to varying concentrations of inhibitors over 48, 72, and 96 h.
(§2) The lung cancer cell lines referenced as A549, H1299, and H661 were acquired from the American Type Culture Collection (ATCC, Manassas, VA, USA). Fibroblast cells of dermal origin were used as a model for normal human tissue, which were also purchased from ATCC. A549, H1299, and H661 cells were maintained in the RPMI culture medium, while fibroblast cells were maintained in the DMEM high glucose culture medium. Both RPMI and DMEM culture media were supplemented with 100 U/mL penicillin, 0.1 mg/mL streptomycin to prevent bacterial growth, 10% FBS to promote cell growth, and 2 mM L-glutamine as an energy source.
(§3) The 3-(4,5-dimethylthiazol-2-yl)-2,5-diphenyltetrazolium bromide (MTT) assay was employed to evaluate cell proliferation as previously noted. All experiments were performed in triplicate wells and were repeated at least twice independently. The percentage of the relative cell viability of treated cells versus the untreated cells (negative controls) was calculated using the following formula in Equation (1) (cell viability calculation):(1) Cell viability%=optical density of treated cells/optical density of untreated cells×100

H1299 lung cancer cells = assay: MTT cell viability assay, H1299; type: cell-based, human
Experimental: as §1, §2, §3

H661 lung cancer cells = assay: MTT cell viability assay, H661; type: cell-based, human
Experimental: as §1, §2, §3

recombinant human MMP12 = molecular target: T1, recombinant human MMP12 (Homo sapiens, UniProt P39900); assay: MMP12 colorimetric thiopeptide enzyme inhibition assay (Abcam); type: biochemical; settings: at 50 µM
T1 construct: purchased Abcam
Experimental: The enzyme inhibition potential of synthesized p-chlorocinnamic acid derivatives against MMP12 was assessed using the Abcam colorimetric assay.
The inhibitory activity of the newly synthesized compounds against MMP12 was assessed using a previously established enzymatic assay protocol, as described in our earlier study. In brief, we conducted a colorimetric thiopeptide-based inhibition assay for MMP12 using recombinant human MMP12 and the reference inhibitor NNGH as a positive control. The IC50 values were calculated using GraphPad Prism version 9 (GraphPad Software, San Diego, CA, USA).

T1 sequence (P39900 106-470): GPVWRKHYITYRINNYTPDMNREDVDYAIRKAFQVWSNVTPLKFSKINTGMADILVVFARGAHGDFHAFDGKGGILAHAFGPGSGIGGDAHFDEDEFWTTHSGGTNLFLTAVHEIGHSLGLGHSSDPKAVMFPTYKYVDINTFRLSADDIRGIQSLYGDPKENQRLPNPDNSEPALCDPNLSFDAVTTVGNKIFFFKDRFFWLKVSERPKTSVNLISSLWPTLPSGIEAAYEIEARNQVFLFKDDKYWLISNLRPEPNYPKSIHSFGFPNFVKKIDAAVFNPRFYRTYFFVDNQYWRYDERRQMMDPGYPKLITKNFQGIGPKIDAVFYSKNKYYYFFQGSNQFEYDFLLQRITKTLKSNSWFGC

Structure (SMILES) | pIC50 (A549 lung cancer cells; A549, 48 h) | pIC50 (A549 lung cancer cells; A549, 72 h) | pIC50 (A549 lung cancer cells; A549, 96 h) | pIC50 (H1299 lung cancer cells; H1299, 48 h) | pIC50 (H1299 lung cancer cells; H1299, 72 h) | pIC50 (H1299 lung cancer cells; H1299, 96 h) | pIC50 (H661 lung cancer cells; H661, 48 h) | pIC50 (H661 lung cancer cells; H661, 72 h) | pIC50 (H661 lung cancer cells; H661, 96 h) | MMP12 enzyme inhibition (recombinant human MMP12)
O=C(/C=C/c1ccc(Cl)cc1)Nc1ccc(Cl)cc1C(=O)c1ccccc1 [Compound C3] | 3.60 | 3.57 | 3.00 | 3.25 | 3.40 | 3.47 | 3.24 | 3.52 | 3.69 | 23.5%
Cc1ccc(NC(=O)/C=C/c2ccc(Cl)cc2)c(C(=O)c2ccccc2)c1 [Compound C4] | 3.02 | 3.40 | 3.77 | 3.21 | 3.52 | 3.60 | 3.25 | 3.50 | 3.84 | 23.3%
O=C(/C=C/c1ccc(Cl)cc1)Nc1ccccc1C(=O)c1ccccc1 [Compound C5] | < 3.00 | – | 3.06 | 3.20 | 3.35 | 3.38 | 3.31 | 3.44 | 3.65 | 11.5%
Cc1ccc(C(=O)c2ccccc2NC(=O)/C=C/c2ccc(Cl)cc2)cc1 [Compound C6] | < 3.00 | < 3.00 | 3.08 | 3.44 | 3.57 | 3.59 | 3.35 | 3.59 | 3.57 | 21.3%
